According to US4197288A, “Neuroleptic radioreceptor assay method and kit” (Burroughs Wellcome Co., priority 1977, dated 1980):
Like-named read-outs stand apart in the source and are kept apart here.

Legend:
[1] = human, in vivo, po
[2] = 0.1 μM drug preincubated with serum 10 min at 37°

| SMILES | Drug level recovered in the radioreceptor assay [2] | also measured |
| --- | --- | --- |
| CN1CCN(CCCN2c3ccccc3Sc3ccc(C(F)(F)F)cc32)CC1 [trifluoperazine] | 0.16 ± 0.2 µM | – |
| OCCN1CCN(CCCN2c3ccccc3Sc3ccc(C(F)(F)F)cc32)CC1 [fluphenazine] | 0.12 ± 0.01 µM | – |
| CN(C)CCCN1c2ccccc2Sc2ccc(Cl)cc21 [chlorpromazine] | – | Drug level recovered in the radioreceptor assay (1 μM drug preincubated with serum 10 min at 37°): 1.0 ± 0.1 µM |
| O=C(CCCN1CCC(O)(c2ccc(Cl)cc2)CC1)c1ccc(F)cc1 [Haloperidol] | – | concentration [1]: 10 to 350 nM |
